Test results taken from US9187441B2, “p53-Mdm2 antagonists” (University of Pittsburgh—Of the Commonwealth System of …, priority 2010, dated 2015).
In brackets after ≈: the same amount, converted by molar mass. Blank lines part the entries; values can stand above or below the compound they belong to.

Key:
Mdm2 [1] = molecular target: T1, Mdm2 (Homo sapiens (Human), UniProt Q00987); test: Fluorescence polarization (FP) competition binding assay with Mdm2
Description: Fluorescence polarization (FP) assay was employed to measure the binding affinities of small molecules with Mdm2.
Protocol for Fluorescence Polarization (FP) Assay:
Fluorescent polarization experiments were performed as follows. […] The fluorescence intensities parallel (Intparallel) and perpendicular (Intperpedicular) to the plane of excitation were measured in parallel perpendicular black 384-well NBS assay plates (Corning) at room temperature (˜20° C.). […] All fluorescence polarization values were expressed in millipolarization units (mP). […] Competition binding assays were performed using the 10 nM fluorescent P4 peptide and 100 nM Mdm2. Binding constant and inhibition curves were fitted using the SigmaPlot (SPSS Science Software).

[2] = Water (aqueous) solubility; assay type: physicochemical
Mdm2 [3] = molecular target: T1, Mdm2; test: NMR (AIDA) ligand binding to Mdm2; details: Table 8, Formula II compounds, measured by NMR (AIDA)
Description: All NMR spectra were acquired at 298 K on a Bruker DRX 600 MHz spectrometer equipped with a cryoprobe. Typically, NMR samples contained 0.1-0.2 mM protein in 50 mM KH2PO4 and 50 mM Na2HPO4, pH 7.4, containing 150 mM NaCl and 5 mM β-Mercaptoethanol. Water suppression was carried out using the WATERGATE sequence. NMR data were processed using the Bruker program Xwin-NMR version 3.5. NMR ligand binding experiments were carried out in an analogous way to those previously described. See D'Silva L., et. al., J. Am. Chem. Soc. 2005, 127, 13220-13226 and Popowicz G. M., et. al., Cell Cycle. 2007, 6, 2386-2392. The maximum concentration of DMSO at the end of titration experiments was less than 1%. The pH was maintained constant during the entire titration. The 1H-15N-HSQC spectra were recorded using fast HSQC pulse sequence as described by Mori et. al., J. Magn. Reson. B 1995, 108, 94-98.
The binding constants (Ki values), of representative Formula II compounds was determined using fluorescence polarization or NMR spectroscopy and are illustrated in Table 8.

[4] = Table 8, Formula II compounds, measured by FP
[5] = read-out: Ki (inhibition constant), Table 1, compounds 8 (C-2 ethyl esters), FP assay, n.i. = no interaction
[6] = Table 1, compounds 8 (C-2 ethyl esters), FP assay, n.i. = no interaction

T1 sequence (Q00987 whole entry): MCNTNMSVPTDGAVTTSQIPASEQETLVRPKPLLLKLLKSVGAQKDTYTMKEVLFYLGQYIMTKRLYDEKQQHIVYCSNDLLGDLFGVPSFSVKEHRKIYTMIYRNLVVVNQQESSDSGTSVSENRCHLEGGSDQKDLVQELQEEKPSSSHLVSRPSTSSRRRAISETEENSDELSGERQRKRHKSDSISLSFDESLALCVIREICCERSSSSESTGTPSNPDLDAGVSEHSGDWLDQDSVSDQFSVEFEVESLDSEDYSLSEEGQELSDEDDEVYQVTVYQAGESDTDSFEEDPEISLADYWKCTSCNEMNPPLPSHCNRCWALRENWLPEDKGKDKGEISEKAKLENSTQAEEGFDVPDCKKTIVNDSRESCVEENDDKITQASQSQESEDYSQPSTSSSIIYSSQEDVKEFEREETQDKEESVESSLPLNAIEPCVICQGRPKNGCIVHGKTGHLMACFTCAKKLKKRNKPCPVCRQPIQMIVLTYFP

Compound: CC(C)(C)NC(=O)C(c1c(C(=O)O)[nH]c2cc(Cl)ccc12)N(C=O)Cc1ccccc1F (stereo not shown) [Compound 7D, 3-(2-(tert-butylamino)-1-(N-(2-fluorobenzyl)formamido)-2-oxoethyl)-6-chloro-1H-indole-2-carboxylic acid]
Ki (Mdm2 [1]): 1.7 µM

Compound: CCOC(=O)c1[nH]c2cc(Cl)ccc2c1C(C(=O)NCc1ccccc1)N(Cc1ccccc1)C(C)=O (stereo not shown) [Compound 8d, Ethyl 3-(1-(N-benzylacetamido)-2-(benzylamino)-2-oxoethyl)-6-chloro-1H-indole-2-carboxylate]
Ki (Mdm2 [1]; read-out: Ki (inhibition constant)): 6 µM

Compound: CCOC(=O)c1[nH]c2cc(Cl)ccc2c1C(N[C@@H](CC(C)C)C(=O)NCCN1CCOCC1)C(=O)NCc1ccccc1 (stereo partly drawn) [KK242, Ethyl 3-(2-(benzylamino)-1-(((S)-4-methyl-1-((2-morpholinoethyl)amino)-1-oxopentan-2-yl)amino)-2-oxoethyl)-6-chloro-1H-indole-2-carboxylate]
Ki (Mdm2 [1]; [4]): 10 µM

Compound: CC(C)(C)NC(=O)C(c1c(C(=O)O)[nH]c2cc(Cl)ccc12)N(C=O)Cc1cc(F)ccc1F (stereo not shown) [Compound 7H, 3-(2-(tert-butylamino)-1-(N-(2,5-difluorobenzyl)formamido)-2-oxoethyl)-6-chloro-1H-indole-2-carboxylic acid]
Ki (Mdm2 [1]): 2.5 µM

Compound: CCOC(=O)c1[nH]c2cc(Cl)ccc2c1C(C(=O)NCc1ccccc1)N(CC(C)C)C(C)=O (stereo not shown) [Compound 8c, Ethyl 3-(2-(benzylamino)-1-(N-isobutylacetamido)-2-oxoethyl)-6-chloro-1H-indole-2-carboxylate]
Ki (Mdm2 [1]; [5]): 4 µM

Compound: CCOC(=O)c1[nH]c2cc(Cl)ccc2c1C(C(=O)NC1CCCCC1)N(C=O)Cc1ccc(Cl)cc1 (stereo not shown) [Compound 8j, Ethyl 6-chloro-3-(1-(N-(4-chlorobenzyl)formamido)-2-(cyclohexylamino)-2-oxoethyl)-1H-indole-2-carboxylate]
Ki (Mdm2 [1]; [5]): 50 µM

Compound: CCOC(=O)c1[nH]c2cc(Cl)ccc2c1C(C(=O)NC1CCCCC1)N(C=O)Cc1ccc(F)cc1 (stereo not shown) [Compound 8k, Ethyl 6-chloro-3-(2-(cyclohexylamino)-1-(N-(4-fluorobenzyl)formamido)-2-oxoethyl)-1H-indole-2-carboxylate]
Ki (Mdm2 [1]; [5]): 30 µM

Compound: CC(C)(C)NC(=O)C(c1c(C(=O)O)[nH]c2cc(Cl)ccc12)N(C=O)Cc1cc(F)c(F)c(F)c1 (stereo not shown) [Compound 7M, 3-(2-(tert-butylamino)-2-oxo-1-(N-(3,4,5-trifluorobenzyl)formamido)ethyl)-6-chloro-1H-indole-2-carboxylic acid]
solubility ([2]; aqueous medium): 850 µg/mL (≈ 1710 µM)

Compound: CCOC(=O)c1[nH]c2cc(Cl)ccc2c1C(C(=O)NC(C)(C)C)N(C=O)Cc1ccc(Oc2ccccc2)cc1 (stereo not shown) [Compound 8t, Ethyl 3-(2-(tert-butylamino)-2-oxo-1-(N-(4-phenoxybenzyl)formamido)ethyl)-6-chloro-1H-indole-2-carboxylate]
Ki (inhibition constant) (Mdm2 [1]; [6]): n.i.

Compound: CC(C)(C)NC(=O)C(c1c(C(=O)O)[nH]c2cc(Cl)ccc12)N(C=O)Cc1cccc(F)c1 (stereo not shown) [Compound 7C, 3-(2-(tert-butylamino)-1-(N-(3-fluorobenzyl)formamido)-2-oxoethyl)-6-chloro-1H-indole-2-carboxylic acid]
Ki (Mdm2 [1]): 0.81 µM

Compound: CCOC(=O)c1[nH]c2cc(Cl)ccc2c1C(NC(CC(C)C)C(=O)OC)C(=O)NCc1ccccc1 (stereo in doubt) [KK229, Ethyl 3-(2-(benzylamino)-1-(((R)-1-methoxy-4-methyl-1-oxopentan-2-yl)amino)-2-oxoethyl)-6-chloro-1H-indole-2-carboxylate]
Ki (Mdm2 [3]): 1.7 µM

Compound: CCOC(=O)c1[nH]c2cc(Cl)ccc2c1C(C(=O)NC(C)(C)C)N(C=O)Cc1ccc(-c2ccccc2)cc1 (stereo not shown) [Compound 8s, Ethyl 3-(1-(N-(biphenyl-4-ylmethyl)formamido)-2-(tert-butylamino)-2-oxoethyl)-6-chloro-1H-indole-2-carboxylate]
Ki (inhibition constant) (Mdm2 [1]; [6]): n.i.

Compound: CCOC(=O)c1[nH]c2cc(Cl)ccc2c1C(C(=O)NC1CCCCC1)N(Cc1ccc(Cl)c(Cl)c1)C(C)=O (stereo not shown) [Compound 8g, Ethyl 6-chloro-3-(2-(cyclohexylamino)-1-(N-(3,4-dichlorobenzyl)acetamido)-2-oxoethyl)-1H-indole-2-carboxylate]
Ki (Mdm2 [1]; [5]): 9 µM

Compound: CC(C)(C)NC(=O)C(c1c(C(=O)O)[nH]c2cc(Cl)ccc12)N(C=O)Cc1ccc(-c2ccccc2)cc1 (stereo not shown) [Compound 9s, 3-(1-(N-(biphenyl-4-ylmethyl)formamido)-2-(tert-butylamino)-2-oxoethyl)-6-chloro-1H-indole-2-carboxylic acid]
Ki (Mdm2 [1]; read-out: Ki (inhibition constant), Table 2, compounds 9 (free C-2 carboxylic acids), FP assay): 2.5 µM

Compound: CCOC(=O)c1[nH]c2cc(Cl)ccc2c1C(N[C@H](C(=O)OC)C(C)C)C(=O)NCc1ccccc1 (stereo partly drawn) [KK228, Ethyl 3-(2-(benzylamino)-1-(((S)-1-methoxy-3-methyl-1-oxobutan-2-yl)amino)-2-oxoethyl)-6-chloro-1H-indole-2-carboxylate]
Ki (Mdm2 [1]; [4]): < 1 µM

Other lines, results leading:

Ki (Mdm2 [1]; [4]): 9 µM
Compound: CC(C)CC(NC(C(=O)NCc1ccccc1)c1c(C(=O)O)[nH]c2cc(Cl)ccc12)C(=O)NCCO (stereo not shown) [KK278, 3-(2-(benzylamino)-1-((1-((2-hydroxyethyl)amino)-4-methyl-1-oxopentan-2-yl)amino)-2-oxoethyl)-6-chloro-1H-indole-2-carboxylic acid]

aqueous solubility [2]: 100 µg/mL (≈ 172 µM)
Compound: COc1ccc(C2=N[C@@H](c3ccc(Cl)cc3)[C@@H](c3ccc(Cl)cc3)N2C(=O)N2CCNC(=O)C2)c(OC(C)C)c1 [Nutlin-3a, reference compound]

Ki (Mdm2 [1]; [4]): 7 µM
Compound: CC(C)CC(NC(C(=O)NCc1ccccc1)c1c(C(=O)O)[nH]c2cc(Cl)ccc12)C(=O)NCCCN1CCOCC1 (stereo not shown) [KK279, 3-(2-(benzylamino)-1-((4-methyl-1-((3-morpholinopropyl)amino)-1-oxopentan-2-yl)amino)-2-oxoethyl)-6-chloro-1H-indole-2-carboxylic acid]

Ki (Mdm2 [1]; [4]): 9 µM
Compound: CCOC(=O)c1[nH]c2cc(Cl)ccc2c1C(NC(CC(C)C)C(=O)NCCO)C(=O)NCc1ccccc1 (stereo in doubt) [KK259, Ethyl 3-(2-(benzylamino)-1-(((S)-1-((2-hydroxyethyl)amino)-4-methyl-1-oxopentan-2-yl)amino)-2-oxoethyl)-6-chloro-1H-indole-2-carboxylate]

Ki (Mdm2 [1]; [4]): 11 µM
Compound: CCOC(=O)c1[nH]c2cc(Cl)ccc2c1C(NC(CC(C)C)C(=O)NCCCN1CCOCC1)C(=O)NCc1ccccc1 (stereo in doubt) [KK261, Ethyl 3-(2-(benzylamino)-1-(((S)-4-methyl-1-((3-morpholinopropyl)amino)-1-oxopentan-2-yl)amino)-2-oxoethyl)-6-chloro-1H-indole-2-carboxylate]

Ki (Mdm2 [1]; [4]): 1.4 µM
Compound: CCOC(=O)c1[nH]c2cc(Cl)ccc2c1C(NC(CC(C)C)C(=O)O)C(=O)NCc1ccccc1 (stereo not shown) [KK272, 2-((2-(benzylamino)-1-(6-chloro-2-(ethoxycarbonyl)-1H-indol-3-yl)-2-oxoethyl)amino)-4-methylpentanoic acid]

Ki (Mdm2 [3]): 0.4 µM
Compound: CC(C)CC(NC(C(=O)NCc1ccccc1)c1c(C(=O)O)[nH]c2cc(Cl)ccc12)C(=O)NCCN1CCOCC1 (stereo not shown) [KK273, 3-(2-(benzylamino)-1-(4-methyl-1-(2-morpholinoethylamino)-1-oxopentan-2-ylamino)-2-oxoethyl)-6-chloro-1H-indole-2-carboxylic acid]
